Assay [1] concerns the target T1, human PTH-1 receptors (Homo sapiens, UniProt Q03431).
T1 construct: expressed in transfected cells
T1 sequence (Q03431 27-593): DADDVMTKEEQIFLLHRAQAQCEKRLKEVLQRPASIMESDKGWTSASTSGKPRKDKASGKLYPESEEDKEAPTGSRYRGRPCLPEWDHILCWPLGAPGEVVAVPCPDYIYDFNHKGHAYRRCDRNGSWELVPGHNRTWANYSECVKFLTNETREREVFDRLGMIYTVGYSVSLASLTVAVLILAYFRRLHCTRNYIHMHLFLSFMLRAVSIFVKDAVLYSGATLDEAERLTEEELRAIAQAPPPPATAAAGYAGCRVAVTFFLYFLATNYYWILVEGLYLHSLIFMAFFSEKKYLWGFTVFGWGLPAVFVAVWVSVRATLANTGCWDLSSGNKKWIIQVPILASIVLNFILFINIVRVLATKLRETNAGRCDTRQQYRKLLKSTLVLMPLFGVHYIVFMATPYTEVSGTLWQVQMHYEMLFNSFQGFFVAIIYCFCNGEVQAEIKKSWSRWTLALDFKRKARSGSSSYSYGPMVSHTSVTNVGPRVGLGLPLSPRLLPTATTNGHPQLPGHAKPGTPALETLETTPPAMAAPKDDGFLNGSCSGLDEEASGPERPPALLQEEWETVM
In words: Intracellular cAMP accumulation (adenylyl cyclase, AC, activation) in HKRK B7 cells. In kind it is cell-based. The following applies: HKRK B7 cells; for AC activation (cAMP accumulation), result in words: compared with hPTH-(1-34) or parent peptide. As for the experimental part: HKRK B7 or EW5 cells (32), subclones of LLC-PKI renal epithelial cells that stably express human or rat PTH-1 receptors (950,000 and 320,000 receptors/cell, respectively), were maintained under 5% CO2 in air in Dulbecco's modified essential medium containing 7% fetal bovine serum (FBS) and 1% penicillin/streptomycin (GIBCO-BRL, Grand Island, N.Y.). HEK-293 and COS-7 cells were cultured similarly, except that 10% FBS was used in the medium. Cells were seeded into 24-well plates two days before assay at a density of 2-2.5×10^5 cells/well (HKRK B7 or EW 5 cells) or 6×10^5 cells/well (in 6-well plates) (HEK-293 cells). In experiments involving HEK-293 cells, DNA transfections were performed 24 hr after plating and inositol radiolabel was added 24 hr thereafter (see below). COS-7 cell transfections were performed as previously described (Gardella, T. J., et al., Endocrinology 132(5):2024-2030 (1993)) Intracellular cAMP accumulation, PLC activation and PTHR binding affinity were measured as previously reported (Bringhurst, F. R., et al., Endocrinology 132(5):2090-2098 (1993); Guo, J., et al., Endocrinology 136(9):3884-3891 (1995)). Intracellular cAMP accumulation was measured in extracts of cells that were exposed to human PTH peptides in the presence of isobutylmethyxanthine (IBMX, 1 mM) at 37° C. for 15 min. After terminating the reactions by aspiration and freezing in liquid nitrogen, cell monolayers were extracted with 50 mM HCl and cAMP was measured using a radioimmunoassay kit (Dupont-New England Nuclear, Boston, Mass.).
In general terms: cAMP levels reflect the balance of adenylyl cyclase and phosphodiesterase activity.

Assay [2] deals with T1, human PTH-1 receptors. In words: PLC activation (IP3 formation) in HKRK B7 cells. The format is cell-based. As to conditions: HKRK B7 cells. As for the experimental part:
HKRK B7 or EW5 cells (32), subclones of LLC-PKI renal epithelial cells that stably express human or rat PTH-1 receptors (950,000 and 320,000 receptors/cell, respectively), were maintained under 5% CO2 in air in Dulbecco's modified essential medium containing 7% fetal bovine serum (FBS) and 1% penicillin/streptomycin (GIBCO-BRL, Grand Island, N.Y.). HEK-293 and COS-7 cells were cultured similarly, except that 10% FBS was used in the medium. Cells were seeded into 24-well plates two days before assay at a density of 2-2.5×10^5 cells/well (HKRK B7 or EW 5 cells) or 6×10^5 cells/well (in 6-well plates) (HEK-293 cells). In experiments involving HEK-293 cells, DNA transfections were performed 24 hr after plating and inositol radiolabel was added 24 hr thereafter (see below). COS-7 cell transfections were performed as previously described (Gardella, T. J., et al., Endocrinology 132(5):2024-2030 (1993))
PLC was activated by PTH agonists in the presence of 30 mM LiCl at 37° C. for 30 min after 16 hr of labeling with [^3H]myo-inositol (3 uCi/ml) in serum-free medium containing 0.1% bovine serum albumin. The reactions were stopped by rapid aspiration and addition of cold 5% TCA. Water-soluble radiolabeled inositol trisphosphate (IP3) was isolated after ether extraction by ion-exchange chromatography (Guo, J., et al., Endocrinology 136(9):3884-3891 (1995)). In experiments involving HEK 293 cells, cells previously transfected with human PTHR cDNA (in the pcDNA1 expression vector HKRK) using Lipofectamine (Gibco BRL) were labeled with [^3H]myo-inositol and assayed as described above, except that total water-soluble [^3H]inositol polyphosphates were collected as a single fraction from the ion-exchange columns.

Entries after “also recorded” stand apart in the source; their conditions may differ. No end group written: not given here.

As a reminder, the EC50 is the midpoint of the concentration-response curve.

“GVSEIQLMHNLGKHLNSMRRVEWLRKKL [[Gly^1,Arg^19]hPTH-(1-28)]”: the “AC activation (cAMP accumulation), result in words” value with human PTH-1 receptors [1] was “indistinguishable from that of hPTH-(1-34) and equivalent to that by hPTH(1-34) and full”. Moreover, in the assay with human PTH-1 receptors [2], the “fold reduction of PLC potency versus hPTH(1-34)” value is reported as “approximately 100 fold”. The “PLC activation (IP3 formation), result in words” value with human PTH-1 receptors [2] (up to 1000 nM or 10 μM) was “no increase in PLC activity; also recorded: strikingly and selectively impaired”.

In the case of “SVSEIQLMHNLGKHLNSMERVEWLRKKL-NH2 [hPTH-(1-28)]”, the EC50 was found to be 0.001 µM at human PTH-1 receptors [1] and 6 µM at human PTH-1 receptors [2] (read-out: EC50 for PLC activity). In addition, the “AC activation (cAMP accumulation), result in words” value on human PTH-1 receptors [1] is recorded as “as effectively as did hPTH-(1-34)”. For the same substance, on human PTH-1 receptors [2], the “fold less potent than hPTH-(1-29) in PLC activation” value is listed as “approximately 5 fold”.

These data come from patent US7479478B2, “Human parathyroid hormone modifications, preparation and use” (The General Hospital Corporation, priority 1998, dated 2009).
